# Data: patent publication US20220323472A1, “ANTI-PARASITIC COMPOUNDS FOR THE TREATMENT AND PREVENTION OF VIRAL DISEASES” (priority 2021, published 2022)
# System: Demodex mites
# Assay: in vitro Demodex survival time assay (LT50)
# Procedure: FIG. 4 summarizes the activity of 10% chloroquine in water relative to a water control on activity against Demodex mites in an in vitro assay, with an LT5o of 31.6 hours for chloroquine compared to 44.8 hours for the water control, illustrating the inactivation effect of chloroquine on Demodex.
# Accordingly, chloroquine and ivermectin may be used to treat SAR-CoV-2 by reducing the microbial load or Demodex population of a patient suffering from viral infection.
# In vitro efficacy and mite lifetimes: Relative efficacy of various formulations are evaluated with a demodex survival time experiments. FIG. 3 tabulates demodex survival time, expressed in terms of LT50 (time at which 50% of demodex mites are killed) and/or average minutes to death for various active agents.
smiles,measurement,setting,value
CCN(CC)CCCC(C)Nc1ccnc2cc(Cl)ccc12 (centres unmarked) [chloroquine],LT50 (time at which 50% of demodex mites are killed),"10% chloroquine in water, in vitro assay, water control 44.8 hours",31.6 h
same,ex-vivo activity against Demodex mites,in vitro assay (FIGS. 3 and 4),some ex-vivo activity
